# According to patent publication US20090030086A1, “ANTIMICROBIAL AGENTS” (priority 2005, published 2009):
# Read-outs that look alike come from different tables or passages of the source.
# Assays:
# P. acnes NCTC 737 [1] = assay: Disc diffusion assay (DDA); type: cell-based, Propionibacterium acnes; details: for zone of inhibition at 200 µg/disc: Cutibacterium acnes
# S. aureus ATCC 29213 [2] = assay: MBC assay; type: cell-based, Staphylococcus aureus
# Method in brief: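 Follows an MIC assay; samples sub-cultured onto non-selective agar and inspected visually for growth to give the minimum lethal concentration. Culture on Mueller-Hinton medium, pH 7.2, aerobic, 37° C, 24 hours.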
# S. aureus ATCC 29213 [3] = assay: MIC assay; type: cell-based, Staphylococcus aureus
# Method in brief: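 Broth microdilution in Mueller-Hinton broth at pH 7.2, incubated aerobically at 37 °C for 24 h and run in duplicate with medium-only and solvent/inoculum controls. The MIC was the lowest concentration whose well stayed visibly clear.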
# S. aureus ATCC 29213 [4] = assay: Supplemented disc diffusion assay; type: cell-based, Staphylococcus aureus; details: for zone of inhibition at 200 µg/disc: Staphylococcus aureus, ATCC29213, 24 h
# Method in brief: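 Paper discs loaded with compound (200 μg per disc for most assays) placed on inoculated Mueller-Hinton agar, pH 7.2, supplemented with 5% v/v defibrinated horse blood, 1% v/v Tween 80 and 100 mM NaCl. Aerobic incubation at 37° C for 24 h; inhibition zone diameter measured.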
# P. acnes NCTC 737 [5] = assay: MIC assay; type: cell-based, Propionibacterium acnes
# Method in brief: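 Broth microdilution in Wilkins-Chalgren Anaerobe broth pH 6.0, inoculated with freshly grown P. acnes NCTC 737 and incubated anaerobically at 37° C for 72 hours. MIC is the lowest compound concentration leaving the well visually clear, read on a light box. Run in duplicate with medium-only and solvent-plus-inoculum controls.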
# P. acnes NCTC 737 [6] = assay: Supplemented disc diffusion assay; type: cell-based, Propionibacterium acnes; details: for zone of inhibition at 200 µg/disc: Cutibacterium acnes, NCTC737, 72 h
# Method in brief: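 Propionibacterium discs loaded with 200 μg compound on Wilkins-Chalgren Anaerobe agar, pH 6.0, supplemented with Tween 80 (1% v/v) and NaCl (100 mM); anaerobic incubation at 37 °C for 72 h. Inhibition zone diameter measured by automated zone sizer.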
# S. aureus ATCC 29213 [7] = assay: Disc diffusion assay (DDA); type: cell-based, Staphylococcus aureus; details: for zone of inhibition at 200 µg/disc: Staphylococcus aureus
# Method in brief: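 Paper discs loaded with test compound (usually 200 μg/disc), solvent evaporated ≥30 min, placed on inoculated Mueller-Hinton agar pH 7.2. Incubated aerobically at 37 °C for 24 h; inhibition zone diameter measured and area calculated as π(D/2)^2.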
# P. acnes NCTC 737 [8] = assay: MBC assay; type: cell-based, Propionibacterium acnes
# Method in brief: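 Plates were then checked visually for growth. The MBC is the lowest lethal concentration; cultures were grown on Wilkins-Chalgren Anaerobe Medium at pH 6.0.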
# [9] = P. acnes NCTC 737, unsupplemented agar, 200 μg per disc (2,6-dimethoxy-p-benzoquinone 100 μg)
# [10] = S. aureus ATCC 29213, Mueller-Hinton broth pH 7.2, aerobic, 37° C., 24 hours
# [11] = S. aureus ATCC 29213, Tween 80 at 1% v/v, 200 μg per disc (thymoquinone 50 μg, 2,6-dimethoxy-p-benzoquinone 100 μg)
# [12] = S. aureus ATCC 29213, defibrinated horse blood 5% v/v, 200 μg per disc (thymoquinone 50 μg, 2,6-dimethoxy-p-benzoquinone 100 μg)
# [13] = S. aureus ATCC 29213, sodium chloride 100 mM, 200 μg per disc (thymoquinone 50 μg, 2,6-dimethoxy-p-benzoquinone 100 μg)
# [14] = P. acnes NCTC 737, Wilkins-Chalgren broth pH 6.0, anaerobic, 37° C., 72 hours
# [15] = P. acnes NCTC 737, Tween 80 at 1% v/v, 200 μg per disc (2,6-dimethoxy-p-benzoquinone 100 μg)
# [16] = P. acnes NCTC 737, sodium chloride 100 mM, 200 μg per disc (2,6-dimethoxy-p-benzoquinone 100 μg)
# [17] = S. aureus ATCC 29213, unsupplemented agar, 200 μg per disc (thymoquinone 50 μg, 2,6-dimethoxy-p-benzoquinone 100 μg)
# [18] = NCTC737, P. acnes NCTC 737, unsupplemented agar, 200 μg per disc (2,6-dimethoxy-p-benzoquinone 100 μg), read-out: DDA (diameter of zone of inhibition)
# [19] = Staphylococcus aureus, ATCC29213, read-out: MBC
# [20] = Staphylococcus aureus, ATCC29213, S. aureus ATCC 29213, Mueller-Hinton broth pH 7.2, aerobic, 37° C., 24 hours, read-out: MIC
# [21] = S. aureus ATCC 29213, Tween 80 at 1% v/v, 200 μg per disc (thymoquinone 50 μg, 2,6-dimethoxy-p-benzoquinone 100 μg), read-out: DDA + lipid
# [22] = S. aureus ATCC 29213, defibrinated horse blood 5% v/v, 200 μg per disc (thymoquinone 50 μg, 2,6-dimethoxy-p-benzoquinone 100 μg), read-out: DDA + blood
# [23] = S. aureus ATCC 29213, sodium chloride 100 mM, 200 μg per disc (thymoquinone 50 μg, 2,6-dimethoxy-p-benzoquinone 100 μg), read-out: DDA + salt
# [24] = Cutibacterium acnes, NCTC737, P. acnes NCTC 737, Wilkins-Chalgren broth pH 6.0, anaerobic, 37° C., 72 hours, read-out: MIC
# [25] = P. acnes NCTC 737, Tween 80 at 1% v/v, 200 μg per disc (2,6-dimethoxy-p-benzoquinone 100 μg), read-out: DDA + lipid
# [26] = P. acnes NCTC 737, sodium chloride 100 mM, 200 μg per disc (2,6-dimethoxy-p-benzoquinone 100 μg), read-out: DDA + salt
# [27] = ATCC29213, S. aureus ATCC 29213, unsupplemented agar, 200 μg per disc (thymoquinone 50 μg, 2,6-dimethoxy-p-benzoquinone 100 μg), read-out: DDA (diameter of zone of inhibition)
# [28] = Cutibacterium acnes, NCTC737, P. acnes NCTC 737, read-out: MBC
Compound,DDA (diameter of zone of inhibition) (P. acnes NCTC 737 [1]; [9]),MBC (S. aureus ATCC 29213 [2]),MIC/MBC ratio (S. aureus ATCC 29213 [2]),MIC (S. aureus ATCC 29213 [3]; [10]),DDA + lipid (S. aureus ATCC 29213 [4]; [11]),DDA + blood (S. aureus ATCC 29213 [4]; [12]),DDA + salt (S. aureus ATCC 29213 [4]; [13]),MIC (P. acnes NCTC 737 [5]; [14]),DDA + lipid (P. acnes NCTC 737 [6]; [15]),DDA + salt (P. acnes NCTC 737 [6]; [16]),DDA (diameter of zone of inhibition) (S. aureus ATCC 29213 [7]; [17]),MBC (P. acnes NCTC 737 [8]; P. acnes NCTC 737),MIC/MBC ratio (P. acnes NCTC 737 [8]; P. acnes NCTC 737),zone of inhibition at 200 µg/disc (P. acnes NCTC 737 [1]; [18]),MBC (S. aureus ATCC 29213 [2]; [19]),MIC (S. aureus ATCC 29213 [3]; [20]),zone of inhibition at 200 µg/disc (S. aureus ATCC 29213 [4]; [21]),zone of inhibition at 200 µg/disc (S. aureus ATCC 29213 [4]; [22]),zone of inhibition at 200 µg/disc (S. aureus ATCC 29213 [4]; [23]),MIC (P. acnes NCTC 737 [5]; [24]),further results
"Oc1ccc(O)c(F)c1F [2,3-difluoro-p-hydroquinone]",0.0 mm,15.6 µg/mL,1,15.6 µg/mL,14.63 mm,10.27 mm,15.56 mm,7.8 µg/mL,0.0 mm,0.0 mm,15.77 mm,31.25 µg/mL,0.25,,,,,,,,
"Cc1cc(O)c(C)c(O)c1 [2,5-dimethylresorcinol]",,,<0.06,,,,,,,,,,0.125,,,,,,,,"zone of inhibition at 200 µg/disc (P. acnes NCTC 737 [1]; NCTC737, read-out: DDA (diameter of zone of inhibition)): 0 mm; MBC (S. aureus ATCC 29213 [2]; Staphylococcus aureus, ATCC29213): > 250 µg/mL; MIC (S. aureus ATCC 29213 [3]; Staphylococcus aureus, ATCC29213, 24 h, pH 7.2): 15.6 µg/mL; zone of inhibition at 200 µg/disc (S. aureus ATCC 29213 [4]; read-out: DDA + blood): 0 mm; zone of inhibition at 200 µg/disc (S. aureus ATCC 29213 [4]; read-out: DDA + lipid): 13.8 mm; zone of inhibition at 200 µg/disc (S. aureus ATCC 29213 [4]; read-out: DDA + salt): 16.9 mm; MIC (P. acnes NCTC 737 [5]; Cutibacterium acnes, NCTC737, 72 h, pH 6): 3.9 µg/mL; zone of inhibition at 200 µg/disc (P. acnes NCTC 737 [6]; read-out: DDA + lipid): 0 mm; zone of inhibition at 200 µg/disc (P. acnes NCTC 737 [6]; read-out: DDA + salt): 0 mm; zone of inhibition at 200 µg/disc (S. aureus ATCC 29213 [7]; ATCC29213, read-out: DDA (diameter of zone of inhibition)): 16.7 mm; MBC (P. acnes NCTC 737 [8]; Cutibacterium acnes, NCTC737): 31.2 µg/mL"
"CC(C)(C)C1=CC(=O)C(=O)C(C(C)(C)C)=C1 [3,5-di-t-butyl-o-benzoquinone]",,,1,,,,,,,,,,1,31.8 mm,7.8 µg/mL,7.8 µg/mL,17.4 mm,15.9 mm,23 mm,15.6 µg/mL,zone of inhibition at 200 µg/disc (P. acnes NCTC 737 [6]; [25]): 26.4 mm; zone of inhibition at 200 µg/disc (P. acnes NCTC 737 [6]; [26]): 40.5 mm; zone of inhibition at 200 µg/disc (S. aureus ATCC 29213 [7]; [27]): 23.4 mm; MBC (P. acnes NCTC 737 [8]; [28]): 15.6 µg/mL
"CC(C)(C)c1cc(C(C)(C)C)c(O)cc1O [4,6-di-t-butylresorcinol]",,,0.5,,,,,,,,,,0.5,36.6 mm,15.6 µg/mL,7.8 µg/mL,0 mm,0 mm,8.4 mm,7.8 µg/mL,zone of inhibition at 200 µg/disc (P. acnes NCTC 737 [6]; [25]): 0 mm; zone of inhibition at 200 µg/disc (P. acnes NCTC 737 [6]; [26]): 37.8 mm; zone of inhibition at 200 µg/disc (S. aureus ATCC 29213 [7]; [27]): 8.09 mm; MBC (P. acnes NCTC 737 [8]; [28]): 15.6 µg/mL
Oc1c(Cl)c(Cl)c(O)c(Cl)c1Cl [tetrachloro-p-hydroquinone],25.37 mm,125 µg/mL,1,125 µg/mL,14.69 mm,9.38 mm,16.88 mm,31.25 µg/mL,0.0 mm,28.27 mm,16.25 mm,31.25 µg/mL,1,,,,,,,,
Oc1c(F)c(F)c(O)c(F)c1F [tetrafluoro-p-hydroquinone],33.86 mm,125 µg/mL,1,125 µg/mL,9.38 mm,0.0 mm,11.25 mm,62.5 µg/mL,0.0 mm,36.35 mm,10.83 mm,125 µg/mL,0.5,,,,,,,,
"CCCCCCOc1cc(C)c(O)c(C)c1C [1-o-hexyl-2,3,5-trimethyl-p-hydroquinone]",16.64 mm,7.8 µg/mL,0.5,3.9 µg/mL,0.0 mm,0.0 mm,8.72 mm,15.6 µg/mL,0.0 mm,16.43 mm,8.61 mm,31.25 µg/mL,0.5,,,,,,,,
Cc1cc(O)c(C(C)C)cc1O [thymohydroquinone],,,0.5,,,,,,,,,,1,9.82 mm,15.6 µg/mL,7.8 µg/mL,41.7 mm,10.3 mm,57.6 mm,31.2 µg/mL,zone of inhibition at 200 µg/disc (P. acnes NCTC 737 [6]; [25]): 0 mm; zone of inhibition at 200 µg/disc (P. acnes NCTC 737 [6]; [26]): 9.61 mm; zone of inhibition at 200 µg/disc (S. aureus ATCC 29213 [7]; [27]): 57.6 mm; MBC (P. acnes NCTC 737 [8]; [28]): 31.2 µg/mL
